The conditions of data set [1]: O/W emulsion, menhaden oil/Smart Blend Omega oil 1:1 (0.5% w/w), entrapped within β-lactoglobulin microcarriers; 28 days of storage at 30° C.
The nature of data set [2]: Lutein photo-stability in delivery system at 21° C. under light 12 h daily, HPLC-PDA-MS/MS. In kind it is physicochemical. Conditions: UV and visible light 12 h daily at 21° C. over 8 weeks; dispersed in heat-stabilized lactoferrin matrix. On the procedure:
A. Encapsulated-1 (Lutein). Primary Emulsion. […] This mixture was coarsely homogenized for 3 min using a hand blender. Secondary Emulsion.
The primary and secondary emulsions were blended at 1:1 ratio. The final emulsion system contained 0.5% Menhaden oil/Smart Blend Omega oil, 0.1% heat-stabilized lactoferrin, 0.1% lutein, and 0.1% high-methoxyl pectin (w/w). The zinc ion concentration after dilution became 2.4 mg/100 ml. This delivery system for lutein was homogenized (72° C., 22.5 MPa), followed by pasteurization (72° C., 120 s).
B. Encapsulated-2 (Lutein). Primary Emulsion. […] This mixture was coarsely homogenized for 3 min using a hand blender. Secondary Emulsion.
The primary and secondary emulsions were blended at 1:1 ratio. The final emulsion system contained 0.5% Menhaden oil/Smart Blend Omega oil, 0.1% heat-stabilized lactoferrin, 0.2% branched-chain amino acids, 0.1% lutein, and 0.1% high-methoxyl pectin (w/w). The zinc ion concentration after dilution became 2.4 mg/100 ml. This delivery system for lutein was homogenized (72° C., 22.5 MPa), followed by pasteurization (72° C., 120 s).
C. Unencapsulated (Lutein). […] This mixture was homogenized (72° C., 22.5 MPa), followed by pasteurization (72° C., 120 s).
The samples (500 ml each) were aseptically dispensed into clean, clear 600-ml bottles made from polyethylene terephthalate (PET). […]

Data set [3] is described as follows: CoQ10 storage stability in delivery system at 30° C., HPLC. In kind it is physicochemical. Conditions: 8 weeks at 30° C.; dispersed in matrix of heat-stabilized lactoferrin alone and in combination with branched-chain amino acids. On the procedure: A delivery system containing the anti-aging agent CoQ10 is prepared as follows: A. Encapsulated-1 (CoQ10). Primary Emulsion. […] This mixture was coarsely homogenized for 3 min using a hand blender. Secondary Emulsion.
The primary and secondary emulsions were blended at 1:1 ratio. The final emulsion system contained 0.5% Menhaden oil/Smart Blend Omega oil, 0.1% heat-stabilized lactoferrin, 0.1% CoQ10 and 0.1% high-methoxyl pectin (w/w). The zinc ion concentration after dilution became 2.4 mg/100 ml. This delivery system for CoQ10 was homogenized (72° C., 22.5 MPa), followed by pasteurization (72° C., 120 s). B. Encapsulated-2 (CoQ10). Primary Emulsion. […] This mixture was coarsely homogenized for 3 min using a hand blender. Secondary Emulsion. […] The primary and secondary emulsions were blended at 1:1 ratio. The final emulsion system contained 0.5% Menhaden oil/Smart Blend Omega oil, 0.1% heat-stabilized lactoferrin, 0.2% branched-chain amino acids, 0.1% CoQ10, and 0.1% high-methoxyl pectin (w/w). The zinc ion concentration after dilution became 2.4 mg/100 ml. This delivery system for CoQ10 was homogenized (72° C., 22.5 MPa), followed by pasteurization (72° C., 120 s). C. Unencapsulated (CoQ10). […] This mixture was homogenized (72° C., 22.5 MPa), followed by pasteurization (72° C., 120 s). […]

Regarding docohexaenoic acid [DHA], in data set [1], the “percentage of retained ω-3 fatty acid” value is listed as 79.5%. On to `CC1=C[C@H](O)CC(C)(C)[C@H]1/C=C/C(C)=C/C=C/C(C)=C/C=C/C=C(C)/C=C/C=C(C)/C=C/C1=C(C)C[C@@H](O)CC1(C)C` [lutein], for which, in data set [2], the “light-sensitive degradation of xanthophyll carotenoid pigments (lutein)” value was “about 70%”. For `COC1=C(OC)C(=O)C(C/C=C(\C)CC/C=C(\C)CC/C=C(\C)CC/C=C(\C)CC/C=C(\C)CC/C=C(\C)CC/C=C(\C)CC/C=C(\C)CC/C=C(\C)CCC=C(C)C)=C(C)C1=O` [CoQ10, coenzyme Q10], the “degradation of CoQ10 during storage” value in data set [3] was “about 30%”.
